For 23 molecules, pest or weed control results are on record in patent publication US20180002288A1, “USE OF PICOLINAMIDES AS FUNGICIDES” (DOW AGROSCIENCES LLC, priority 2014, published 2018).

One experiment concerns Zymoseptoria tritici. The experiment can be described thus: Leaf Blotch of Wheat fungicidal activity (SEPTTR). The format is in vivo. The following applies: for pest or weed control at 121.5 g/ha: Low Volume Cereal Activity at 121.5 g/Ha; for pest or weed control at 100 ppm: wheat, high volume. The procedure: (§1) All fungicides were evaluated using the aforementioned method for their activity vs. all target diseases, unless stated otherwise. Wheat leaf blotch and brown rust activity were also evaluated using track spray applications, in which case the fungicides were formulated as EC formulations, containing 0.1% Trycol 5941 in the spray solutions. Wheat plants (variety Yuma) were grown from seed in a greenhouse in 50% mineral soil/50% soil-less Metro mix until the first leaf was fully emerged, with 7-10 seedlings per pot. These plants were inoculated with an aqueous spore suspension of Zymoseptoria tritici either prior to or after fungicide treatments. After inoculation the plants were kept in 100% relative humidity (one day in a dark dew chamber followed by two to three days in a lighted dew chamber at 20° C.) to permit spores to germinate and infect the leaf. The plants were then transferred to a greenhouse set at 20° C. for disease to develop. When disease symptoms were fully expressed on the 1st leaves of untreated plants, infection levels were assessed on a scale of 0 to 100 percent disease severity. Percent disease control was calculated using the ratio of disease severity on treated plants relative to untreated plants.

For the next experiment, the system named is Puccinia triticina. Nature of the experiment: Wheat Brown Rust fungicidal activity (PUCCRT). The following applies: for pest or weed control at 121.5 g/ha: Low Volume Cereal Activity at 121.5 g/Ha; for pest or weed control at 100 ppm: wheat, high volume. In kind it is in vivo. The procedure:
as §1, with “plants. Wheat plants (variety Yuma) were grown from seed in a greenhouse in 50% mineral soil/50% soil-less Metro mix until the first leaf was fully emerged, with 7-10 seedlings per pot. These plants were inoculated with an aqueous spore suspension of Puccinia triticina either prior to or after fungicide treatments. […] The plants were then transferred to a greenhouse set at 24° C. for disease to develop. Fungicide formulation, application and disease assessment followed the procedures as described in the Example A.” for “plants.”

Where [1] appears, read: 24 h, 1 Day Protectant, read-out: SEPTTR 1DP (Wheat Leaf Blotch, 1 Day Protectant).
[2] abbreviates: 72 h, 3 Day Curative, read-out: SEPTTR 3DC (Wheat Leaf Blotch, 3 Day Curative).
The mark [3] stands for this setting: 24 h, 1 Day Protectant, read-out: PUCCRT 1DP (Wheat Brown Rust, 1 Day Protectant).
Where [4] appears, read: 72 h, 3 Day Curative, read-out: PUCCRT 3DC (Wheat Brown Rust, 3 Day Curative).
Setting [5] is: 24 h, 1 Day Protectant, read-out: SEPTTR 1DP % Control rating.
The mark [6] stands for this setting: 72 h, 3 Day Curative, read-out: SEPTTR 3DC % Control rating.
The mark [7] stands for this setting: 24 h, 1 Day Protectant, read-out: PUCCRT 1DP % Control rating.
The mark [8] stands for this setting: 72 h, 3 Day Curative, read-out: PUCCRT 3DC % Control rating.

Read-outs that look alike come from different tables or passages of the source.

On to `COc1ccnc(C(=O)N[C@@H](C)C(=O)O[C@@H](C)[C@@H](Oc2ccc(Cl)cc2Cl)c2ccccc2)c1OCOC(C)=O` [Example 216], for which the pest or weed control at 121.5 g/ha is more than 80% in the experiment with Zymoseptoria tritici (setting [1]), more than 80% in the experiment with Zymoseptoria tritici (setting [2]), more than 80% in the experiment on Puccinia triticina (setting [3]) and less than 80% in the experiment on Puccinia triticina (setting [4]).

On to `COc1ccnc(C(=O)N[C@@H](C)C(=O)O[C@@H](C)[C@@H](OCC2CC2)c2ccccc2)c1OC(C)=O` [Example 232], for which the pest or weed control at 121.5 g/ha was less than 0% in the experiment with Zymoseptoria tritici (setting [1]), more than 80% with Zymoseptoria tritici (setting [2]), more than 80% with Puccinia triticina (setting [3]) and more than 80% with Puccinia triticina (setting [4]).

As for `COc1cc(F)ccc1[C@@H](Oc1ccc(C)cc1Cl)[C@H](C)OC(=O)[C@H](C)NC(=O)c1nccc(OC)c1O` [Example 169], the pest or weed control at 100 ppm with Zymoseptoria tritici (setting [5]) was more than 80%; in the experiment on Zymoseptoria tritici (setting [6]), more than 80%; in the experiment on Puccinia triticina (setting [7]), more than 80%; in the experiment with Puccinia triticina (setting [8]), less than 80%.

In the case of `COc1ccnc(C(=O)N[C@@H](C)C(=O)O[C@@H](C)[C@H](Oc2cccc(Cl)c2)c2ccccc2)c1OC(C)=O` [Example 203], the pest or weed control at 121.5 g/ha in the experiment with Zymoseptoria tritici (setting [1]) is more than 80%; with Zymoseptoria tritici (setting [2]) it was more than 80%; in the experiment with Puccinia triticina (setting [3]), more than 80%; in the experiment on Puccinia triticina (setting [4]), less than 80%.

Turning to `COc1ccnc(C(=O)N[C@@H](C)C(=O)O[C@@H](C)[C@H](Oc2ccccc2)c2ccc(-c3ccccc3)cc2)c1O` [Example 144], the pest or weed control at 100 ppm was more than 80% in the experiment with Zymoseptoria tritici (setting [5]), less than 80% with Zymoseptoria tritici (setting [6]), more than 80% in the experiment on Puccinia triticina (setting [7]) and less than 80% in the experiment with Puccinia triticina (setting [8]).

As for `COc1ccnc(C(=O)N[C@@H](C)C(=O)O[C@@H](C)[C@H](Oc2ccc(F)cc2)c2ccc(C)cc2)c1OCOC(C)=O` [Example 253], the pest or weed control at 121.5 g/ha in the experiment with Zymoseptoria tritici (setting [1]), in the experiment with Zymoseptoria tritici (setting [2]), with Puccinia triticina (setting [3]) and in the experiment with Puccinia triticina (setting [4]) was more than 80% in each case.

On to `COc1ccnc(C(=O)N[C@@H](C)C(=O)O[C@@H](C)[C@H](Oc2cccc(F)c2)c2cccc(-c3ccccc3)c2)c1OC(C)=O` [Example 223], for which the pest or weed control at 121.5 g/ha was more than 80% in the experiment on Zymoseptoria tritici (setting [1]), more than 80% with Zymoseptoria tritici (setting [2]), more than 80% in the experiment on Puccinia triticina (setting [3]) and less than 80% in the experiment with Puccinia triticina (setting [4]).

For `COc1cc(F)ccc1[C@@H](OCC1CC1)[C@H](C)OC(=O)[C@H](C)NC(=O)c1nccc(OC)c1O` [Example 289], the pest or weed control at 100 ppm in the experiment on Zymoseptoria tritici (setting [5]), in the experiment on Zymoseptoria tritici (setting [6]), in the experiment with Puccinia triticina (setting [7]) and in the experiment with Puccinia triticina (setting [8]) was more than 80% in each case.

On to `COc1cc(F)ccc1[C@@H](Oc1ccc(C)cc1)[C@H](C)OC(=O)[C@H](C)NC(=O)c1nccc(OC)c1O` [Example 173], for which the pest or weed control at 100 ppm in the experiment on Zymoseptoria tritici (setting [5]), in the experiment with Zymoseptoria tritici (setting [6]), with Puccinia triticina (setting [7]) and with Puccinia triticina (setting [8]) was more than 80% throughout.

For `COc1ccnc(C(=O)N[C@@H](C)C(=O)O[C@@H](C)[C@@H](Oc2ccccc2)c2ccccc2)c1OC(=O)C(C)C` [Example 218], the pest or weed control at 121.5 g/ha was more than 80% with Zymoseptoria tritici (setting [1]), less than 80% in the experiment with Zymoseptoria tritici (setting [2]), less than 0% with Puccinia triticina (setting [3]) and less than 0% in the experiment with Puccinia triticina (setting [4]).

For `COc1ccnc(C(=O)N[C@@H](C)C(=O)O[C@@H](C)[C@H](Oc2ccc(Cl)cc2)c2ccccc2)c1O` [Example 119], the pest or weed control at 100 ppm in the experiment on Zymoseptoria tritici (setting [5]) is less than 80%; with Zymoseptoria tritici (setting [6]) it was more than 80%; in the experiment on Puccinia triticina (setting [7]) it was more than 80%; in the experiment with Puccinia triticina (setting [8]), more than 80%.

For `C=CCOc1cc(F)ccc1[C@@H](Oc1ccccc1)[C@H](C)OC(=O)[C@H](C)NC(=O)c1nccc(OC)c1O` [Example 167], the pest or weed control at 100 ppm in the experiment on Zymoseptoria tritici (setting [5]), with Zymoseptoria tritici (setting [6]), with Puccinia triticina (setting [7]) and in the experiment with Puccinia triticina (setting [8]) was more than 80% in each case.

For `COc1ccnc(C(=O)N[C@@H](C)C(=O)O[C@@H](C)[C@@H](Oc2ccccc2)c2ccccc2)c1OC(C)=O` [Example 217], the pest or weed control at 121.5 g/ha is more than 80% in the experiment on Zymoseptoria tritici (setting [1]), more than 80% in the experiment on Zymoseptoria tritici (setting [2]), more than 80% with Puccinia triticina (setting [3]) and less than 80% in the experiment with Puccinia triticina (setting [4]).

On to `COc1ccnc(C(=O)N[C@@H](C)C(=O)O[C@@H](C)[C@H](Oc2cccc(F)c2)c2ccccc2)c1O` [Example 127], for which the pest or weed control at 100 ppm with Zymoseptoria tritici (setting [5]), in the experiment on Zymoseptoria tritici (setting [6]), in the experiment with Puccinia triticina (setting [7]) and in the experiment with Puccinia triticina (setting [8]) was more than 80% in each case.

For `COc1ccnc(C(=O)N[C@@H](C)C(=O)O[C@@H](C)[C@H](Oc2ccc(C)cc2)c2ccccc2)c1OCOC(C)=O` [Example 248], the pest or weed control at 121.5 g/ha in the experiment on Zymoseptoria tritici (setting [1]), in the experiment with Zymoseptoria tritici (setting [2]), in the experiment with Puccinia triticina (setting [3]) and in the experiment with Puccinia triticina (setting [4]) was more than 80% each time.

In the case of `COc1ccnc(C(=O)N[C@@H](C)C(=O)O[C@@H](C)[C@H](Oc2ccc(C)cc2Cl)c2ccccc2)c1OCOC(C)=O` [Example 244], the pest or weed control at 121.5 g/ha in the experiment with Zymoseptoria tritici (setting [1]) is more than 80%; in the experiment with Zymoseptoria tritici (setting [2]) it was more than 80%; in the experiment on Puccinia triticina (setting [3]), more than 80%; with Puccinia triticina (setting [4]), less than 80%.

As to `COc1ccnc(C(=O)N[C@@H](C)C(=O)O[C@H](C)[C@@H](Oc2ccccc2)c2ccccc2)c1O` [Example 115], the pest or weed control at 100 ppm was less than 0% in the experiment on Zymoseptoria tritici (setting [5]), less than 80% in the experiment with Zymoseptoria tritici (setting [6]), less than 0% in the experiment on Puccinia triticina (setting [7]) and more than 80% in the experiment on Puccinia triticina (setting [8]).

For the molecule `CCCO[C@@H](c1ccccc1)[C@H](C)OC(=O)[C@H](C)NC(=O)c1nccc(OC)c1OC(C)=O` [Example 227], the pest or weed control at 121.5 g/ha is less than 80% in the experiment on Zymoseptoria tritici (setting [1]), more than 80% in the experiment on Zymoseptoria tritici (setting [2]), more than 80% with Puccinia triticina (setting [3]) and more than 80% in the experiment with Puccinia triticina (setting [4]).

For `COc1ccnc(C(=O)N[C@@H](Cc2ccccc2)C(=O)O[C@@H](C)[C@H](Oc2cccc(F)c2)c2ccccc2)c1OCOC(C)=O` [Example 189], the pest or weed control at 121.5 g/ha in the experiment with Zymoseptoria tritici (setting [1]) is less than 80%; in the experiment on Zymoseptoria tritici (setting [2]) it was less than 0%; in the experiment on Puccinia triticina (setting [3]) it was more than 80%; in the experiment on Puccinia triticina (setting [4]), less than 80%.

For the molecule `COc1ccnc(C(=O)N[C@@H](C)C(=O)O[C@@H](C)[C@H](Oc2ccc(C)cc2Cl)c2ccc(F)cc2)c1OCOC(C)=O` [Example 245], the pest or weed control at 121.5 g/ha is more than 80% with Zymoseptoria tritici (setting [1]), more than 80% in the experiment on Zymoseptoria tritici (setting [2]), more than 80% in the experiment with Puccinia triticina (setting [3]) and less than 80% in the experiment with Puccinia triticina (setting [4]).

With `COc1ccnc(C(=O)N[C@@H](C)C(=O)O[C@@H](C)[C@H](Oc2ccccc2)c2ccc3ccccc3c2)c1O` [Example 166], the pest or weed control at 100 ppm in the experiment on Zymoseptoria tritici (setting [5]), with Zymoseptoria tritici (setting [6]), in the experiment on Puccinia triticina (setting [7]) and in the experiment on Puccinia triticina (setting [8]) was more than 80% each time.

With `COc1ccnc(C(=O)N[C@@H](C)C(=O)O[C@@H](C)[C@H](Oc2ccccc2)c2ccc(F)cc2OCC(F)F)c1O` [Example 176], the pest or weed control at 100 ppm in the experiment on Zymoseptoria tritici (setting [5]), in the experiment with Zymoseptoria tritici (setting [6]), in the experiment on Puccinia triticina (setting [7]) and in the experiment on Puccinia triticina (setting [8]) was more than 80% each time.

Turning to `COc1ccnc(C(=O)N[C@@H](C)C(=O)O[C@@H](C)[C@H](Oc2ccc(C)cc2)c2ccc(F)cc2)c1O` [Example 152], the pest or weed control at 100 ppm with Zymoseptoria tritici (setting [5]), in the experiment on Zymoseptoria tritici (setting [6]), in the experiment with Puccinia triticina (setting [7]) and in the experiment on Puccinia triticina (setting [8]) was more than 80% each time.
